Experimental data: patent US20150038435A1, “N-TERMINALLY MODIFIED OLIGOPEPTIDES AND USES THEREOF” (Novo Nordisk A/S, priority 2012, published 2015)
Starred links: 1 amine or outer side, 2 acyl side, 3 side chain; linkers in the order of their positions; H or OH if unused. Non-standard residues stand in square brackets, D forms with d. *: point of attachment. γGlu = O=C(O)[C@H](CCC(=O)[*:2])N[*:1]; Lauroyl = CCCCCCCCCCCC(=O)*

Legend:
[1] = Hydrophobicity: retention time during reverse phase HPLC; format: physicochemical; conditions: Acquity CSH C18; pH 7.2 buffer/CH3CN gradient; 40° C.
Excerpt: The retention time (RT) during reverse phase HPLC was taken as a measure of hydrophobicity of an N-terminally modified peptide or oligopeptide of the invention, where the connection is: The longer the RT, the more hydrophobic N-terminally modified peptide or oligopeptide. The following running conditions were applied during HPLC analysis:
Buffer B: 70% (v/v) aq. CH3CN

[2] = test system: Chymotrypsin; assay: Inhibition of enzymatic degradation of a model GLP-1 (FRET substrate) by chymotrypsin; format: biochemical
Summary of the method: (§1)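 MCA/DNP-labelled model GLP-1 FRET substrate (10 μl of 100 μM stock) in Dulbecco's PBS at 37° C with varying acylated peptide; fluorescence (ex 320/em 405 nm) read every minute for ≥30 min. Initial slopes from linear regression, duplicates averaged; EC50 by sigmoidal logistic fit of slope vs concentration.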

[3] = test system: Trypsin; assay: Inhibition of enzymatic degradation of a model GLP-1 (FRET substrate) by trypsin; format: biochemical
Summary of the method: as §1

[4] = compound 0.1 mM, buffer containing 8% DMSO

Substance	RT (retention time during reverse phase HPLC as a measure of hydrophobicity) [1] [min]	EC50 ([2]; read-out: EC50 Chymotrypsin (0.001 mg/ml), 0.001 mg/ml chymotrypsin, 37° C., ± standard error if at least 3 measurements) [µM]	EC50 ([3]; read-out: EC50 Trypsin (0.001 mg/ml), 0.001 mg/ml trypsin, 37° C.) [µM]	Slope of the initial increase in fluorescence obtained during incubation with 0.001 mg/ml Chymotrypsin [2, 4]	Slope of the initial increase in fluorescence obtained during incubation with 0.001 mg/ml Trypsin [3, 4]	Slope of the initial increase in fluorescence obtained during incubation with 0.001 mg/ml Chymotrypsin ([2]; compound 1 mM)	Slope of the initial increase in fluorescence obtained during incubation with 0.001 mg/ml Trypsin ([3]; compound 1 mM)
N-dodecanoyl-Lys-Ala-Pro-Tyr-OH (Lauroyl-KAPY-OH; SMILES CCCCCCCCCCCC(=O)N[C@@H](CCCCN)C(=O)N[C@@H](C)C(=O)N1CCC[C@H]1C(=O)N[C@@H](Cc1ccc(O)cc1)C(=O)O) [Example 45]	4.62			0.89	1.84		
N-dodecanoyl-Met-Ala-Ala-Pro-Tyr-OH (Lauroyl-MAAPY-OH; SMILES CCCCCCCCCCCC(=O)N[C@@H](CCSC)C(=O)N[C@@H](C)C(=O)N[C@@H](C)C(=O)N1CCC[C@H]1C(=O)N[C@@H](Cc1ccc(O)cc1)C(=O)O) [Example 46]	7.06			0.09	1.76		
N-dodecanoyl-Met-Ala-Pro-Tyr-OH (Lauroyl-MAPY-OH; SMILES CCCCCCCCCCCC(=O)N[C@@H](CCSC)C(=O)N[C@@H](C)C(=O)N1CCC[C@H]1C(=O)N[C@@H](Cc1ccc(O)cc1)C(=O)O) [Example 47]	7.09			0.48	1.77		
N-dodecanoyl-OEG-OEG-DPhe-OEG-OH [Example 131]	6.21					0.53	0.62
N-dodecanoyl-OEG-OEG-Phe-OH [Example 128]	3.08					0.86	0.35
N-dodecanoyl-Pro-Ala-Ala-Pro-Tyr-OH [Example 48]	6.2			0.07	1.55		
N-dodecanoyl-Pro-Ala-Pro-Tyr-OH (Lauroyl-PAPY-OH; SMILES CCCCCCCCCCCC(=O)N1CCC[C@H]1C(=O)N[C@@H](C)C(=O)N1CCC[C@H]1C(=O)N[C@@H](Cc1ccc(O)cc1)C(=O)O) [Example 49]	6.2			0.57	1.96		
N-dodecanoyl-Ser-Ala-Pro-Tyr-OH (Lauroyl-SAPY-OH; SMILES CCCCCCCCCCCC(=O)N[C@@H](CO)C(=O)N[C@@H](C)C(=O)N1CCC[C@H]1C(=O)N[C@@H](Cc1ccc(O)cc1)C(=O)O) [Example 51]	5.2			0.41	1.66		
N-dodecanoyl-Ser-Pro-Tyr-OH [Example 107]	5.58			0.89	1.99		
N-dodecanoyl-Thr-Ala-Pro-Tyr-OH (Lauroyl-TAPY-OH; SMILES CCCCCCCCCCCC(=O)N[C@H](C(=O)N[C@@H](C)C(=O)N1CCC[C@H]1C(=O)N[C@@H](Cc1ccc(O)cc1)C(=O)O)[C@@H](C)O) [Example 53]	5.52			0.16	1.80		
N-dodecanoyl-Thr-Pro-Tyr-OH [Example 108]	5.72			0.59	1.92		
N-dodecanoyl-Trp-Pro-Tyr-OH [Example 109]	8.24			0.05	0.73		
N-dodecanoyl-Val-Ala-Ala-Pro-Tyr-OH [Example 54]	7.08			0.95	1.95		
N-dodecanoyl-Val-Ala-Pro-Tyr-OH (Lauroyl-VAPY-OH; SMILES CCCCCCCCCCCC(=O)N[C@H](C(=O)N[C@@H](C)C(=O)N1CCC[C@H]1C(=O)N[C@@H](Cc1ccc(O)cc1)C(=O)O)C(C)C) [Example 55]	7.01			0.42	1.88		
N-dodecanoyl-γGlu-Ala-Ala-Pro-Phe-OH [Example 12]	4.04					0.76	0.30
N-dodecanoyl-γGlu-Ala-Ala-Pro-Tyr-OH [Example 97]	3.79			0.55	1.31		
N-dodecanoyl-γGlu-Ala-Pro-Tyr-OH (Lauroyl-[γGlu]APY-OH; SMILES CCCCCCCCCCCC(=O)N[C@@H](CCC(=O)N[C@@H](C)C(=O)N1CCC[C@H]1C(=O)N[C@@H](Cc1ccc(O)cc1)C(=O)O)C(=O)O) [Example 98]	3.79			1.39	1.53		

Continued, in another order:

RT (retention time during reverse phase HPLC as a measure of hydrophobicity) [1] [min]	EC50 ([2]; read-out: EC50 Chymotrypsin (0.001 mg/ml), 0.001 mg/ml chymotrypsin, 37° C., ± standard error if at least 3 measurements) [µM]	EC50 ([3]; read-out: EC50 Trypsin (0.001 mg/ml), 0.001 mg/ml trypsin, 37° C.) [µM]	Substance	Slope of the initial increase in fluorescence obtained during incubation with 0.001 mg/ml Chymotrypsin [2, 4]	Slope of the initial increase in fluorescence obtained during incubation with 0.001 mg/ml Trypsin [3, 4]	Slope of the initial increase in fluorescence obtained during incubation with 0.001 mg/ml Chymotrypsin ([2]; compound 1 mM)	Slope of the initial increase in fluorescence obtained during incubation with 0.001 mg/ml Trypsin ([3]; compound 1 mM)
5.17			N-dodecanoyl-Lys-Pro-Tyr-OH [Example 122]	0.26	1.68		
7.23			N-dodecanoyl-Met-Pro-Tyr-OH [Example 123]	0.82	2.11		
6.34	341	391	N-dodecanoyl-OEG-OEG-DPhe-OH [Example 129]			0.16	0.38
6.21			N-dodecanoyl-OEG-OEG-Phe-OEG-OH [Example 130]			0.54	0.67
8.19			N-dodecanoyl-Phe-Pro-Tyr-OH [Example 124]	0.12	0.63		
6.01			N-dodecanoyl-Pro-Pro-Tyr-OH [Example 106]	1.72	1.75		
5.16			N-dodecanoyl-Ser-Ala-Ala-Pro-Tyr-OH [Example 50]	0.09	1.48		
5.47			N-dodecanoyl-Thr-Ala-Ala-Pro-Tyr-OH [Example 52]	0.01	1.68		
6.24			N-dodecanoyl-Tyr-Pro-Tyr-OH [Example 110]	0.35	1.77		
7			N-dodecanoyl-Val-Pro-Tyr-OH [Example 111]	0.31	1.93		
6.13			N-dodecanoyl-βAla-Ala-Pro-Phe-OH [Example 8]			0.03	0.70
6.04			N-dodecanoyl-βAla-βAla-Pro-Phe-OH [Example 10]			0.05	3.29
3.95			N-dodecanoyl-γGlu-OEG-Ala-Ala-Pro-Phe-OH [Example 125]			0.75	0.38
